From paper PMC12915296 (Journal of medicinal chemistry, 2025) come the findings set out here.

Structures are written as SMILES. Like-named read-outs stand apart in the source and are kept apart here.

The target of test [1] is T1, hCB2 receptor (Homo sapiens, UniProt P34972). In words: Inhibition of forskolin-stimulated cAMP accumulation, 3xHA-hCB2-CHO cells. Type of test: cell-based. As to conditions: for Emax: read-out: hCB2 receptor cAMP Emax. Background: cAMP levels reflect the balance of adenylyl cyclase and phosphodiesterase activity.
T1 sequence (P34972 whole entry): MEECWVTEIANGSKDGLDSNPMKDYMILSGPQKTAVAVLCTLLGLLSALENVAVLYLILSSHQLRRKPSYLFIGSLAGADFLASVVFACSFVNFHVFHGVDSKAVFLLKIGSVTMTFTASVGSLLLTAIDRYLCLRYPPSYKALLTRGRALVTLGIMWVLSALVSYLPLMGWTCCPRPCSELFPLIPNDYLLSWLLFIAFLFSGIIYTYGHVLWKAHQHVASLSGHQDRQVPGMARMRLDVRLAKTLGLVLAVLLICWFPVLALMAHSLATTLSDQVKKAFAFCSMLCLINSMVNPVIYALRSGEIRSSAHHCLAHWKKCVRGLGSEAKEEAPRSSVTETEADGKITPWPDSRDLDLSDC
Test [2] concerns the target T1, hCB2 receptor. The experiment in a line: β-arrestin 2 recruitment assay. Type of test: cell-based. As to conditions: for Emax: read-out: hCB2 receptor β-Arrestin 2 Emax. A general note: Arrestin recruitment assays detect the binding of arrestin to an activated receptor.
For test [3], the system named is Adult male CD1 mice. The experiment in a line: Ring test for catalepsy. In kind it is in vivo. As to conditions: for immobility time in the ring test vs vehicle: i.p., mice, overall.
In test [4] the test system is Adult male CD1 mice. In words: Measurement of rectal temperature. Type of test: in vivo. As to conditions: for body temperature vs vehicle: i.p., mice.
In test [5] the test system is Adult male CD1 mice. The experiment in a line: Tail-flick. Type of test: in vivo. As to conditions: for tail-flick latency in the tail-immersion test vs vehicle: mice, overall. (In general: Hot-plate and tail-flick tests time the reaction to a heat stimulus.)
Test [6] deals with Adult male CD1 mice. The experiment in a line: CFA-induced inflammatory pain model, mechanical paw withdrawal thresholds. Type of test: in vivo. To be noted: AM251 5 mg/kg i.p. alone, overall.
Test [7] concerns the target T2, hCB1 receptor (Homo sapiens, UniProt P21554). In words: cell-based. As to conditions: for Emax: read-out: hCB1 receptor cAMP Emax, normalized to maximum CP-55,940 = 100.
Test [8] has as its target T2, hCB1 receptor. In words: cell-based. To be noted: read-out: hCB1 receptor β-Arrestin 2 Emax.
Test [9] deals with rCB1 receptor (Rattus norvegicus, UniProt P20272). The experiment in a line: rCB1 radioligand binding assay, [3H]CP-55,940 competition. To be noted: for increase in binding affinity for CB1 compared to lead AMG315: ratio of Ki values.
Chain of rCB1 receptor (P20272 whole entry): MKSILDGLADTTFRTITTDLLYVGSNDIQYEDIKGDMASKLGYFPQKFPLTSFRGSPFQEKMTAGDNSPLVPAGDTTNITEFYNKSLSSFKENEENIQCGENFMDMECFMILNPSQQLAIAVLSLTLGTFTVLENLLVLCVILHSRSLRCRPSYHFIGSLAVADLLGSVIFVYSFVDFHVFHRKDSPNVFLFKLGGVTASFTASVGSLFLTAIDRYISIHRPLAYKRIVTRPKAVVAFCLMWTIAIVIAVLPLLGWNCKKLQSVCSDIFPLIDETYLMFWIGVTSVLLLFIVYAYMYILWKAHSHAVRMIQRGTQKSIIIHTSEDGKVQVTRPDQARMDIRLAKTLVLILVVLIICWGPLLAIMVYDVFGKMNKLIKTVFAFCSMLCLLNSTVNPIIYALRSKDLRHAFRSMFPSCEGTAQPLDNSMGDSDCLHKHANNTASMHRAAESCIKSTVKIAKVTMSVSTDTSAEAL
Test [10] concerns the target T1, hCB2 receptor. The experiment in a line: hCB2 radioligand binding assay, [3H]CP-55,940 competition, HEK293 membranes. To be noted: for higher affinity for CB2 than the lead compound AMG315: ratio of Ki values.

T2 sequence (P21554 whole entry): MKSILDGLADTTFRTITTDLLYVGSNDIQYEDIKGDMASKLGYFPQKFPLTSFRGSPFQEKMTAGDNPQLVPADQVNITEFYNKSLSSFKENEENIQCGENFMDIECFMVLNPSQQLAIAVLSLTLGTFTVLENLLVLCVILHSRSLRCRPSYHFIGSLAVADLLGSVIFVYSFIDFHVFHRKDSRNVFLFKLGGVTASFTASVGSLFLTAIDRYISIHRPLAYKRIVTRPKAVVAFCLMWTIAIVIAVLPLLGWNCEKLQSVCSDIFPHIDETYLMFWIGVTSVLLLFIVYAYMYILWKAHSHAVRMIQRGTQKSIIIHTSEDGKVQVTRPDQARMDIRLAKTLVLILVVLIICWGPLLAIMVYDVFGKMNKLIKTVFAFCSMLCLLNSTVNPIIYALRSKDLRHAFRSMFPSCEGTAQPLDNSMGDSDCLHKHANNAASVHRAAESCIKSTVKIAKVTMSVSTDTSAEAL

The Emax is the size of the effect at its maximum, as opposed to the concentration needed. With `CCCCC/C=C\C/C=C\C/C=C\C/C=C\CCCC(=O)NCCO` [AEA, N-arachidonoylethanolamide, reference compound], the Emax is 27% in test [1] and 36% in test [2].
For `Cc1c(C(=O)NN2CCCCC2)nn(-c2ccc(Cl)cc2Cl)c1-c1ccc(I)cc1` [AM251, 1-(2,4-dichlorophenyl)-5-(4-iodophenyl)-4-methyl-N-1-piperidinyl-1H-pyrazole-3-carboxamide, reference compound], the “effect of pretreatment on AM12814-induced catalepsy in the ring test” value in test [3] (AM251 5 mg/kg ip before AM12814 1 mg/kg ip) is given as “blocked”. The “effect of pretreatment on hypothermic effect of AM12814” value in test [4] (AM251 5 mg/kg i.p. before AM12814 1 mg/kg i.p.) is “abolished”. Further, the “effect of pretreatment on tail-flick antinociception of AM12814” value in [5] (AM251 5 mg/kg i.p. before AM12814 3 mg/kg i.p.) is reported as “reduced the overall antinociceptive efficacy”. Besides, the “ipsilateral paw withdrawal thresholds, AM251-Veh vs Veh–Veh” value in test [6] is “modestly elevated”.
Turning to `CCCCC/C=C\[C@H](C)/C=C\C/C=C\C/C=C\CCCC(=O)N[C@H](C)CO` [AMG315, (R)-N-(1-Methyl-2-hydroxyethyl)-13-(S)-methyl-arachidonamide, reference compound], the Emax in test [7] came to 80.5%; in test [8], 38%; in test [1] it was 18%; in test [2] it was 36%.
By Ki is commonly meant a dissociation constant, usually derived from enzyme kinetics or from competition with a known ligand. By EC50 is commonly meant the concentration at which the effect is half-maximal. Lower therefore signals higher potency in that assay. On to `C[C@H](/C=C\C/C=C\C/C=C\CCCC(=O)N[C@H](C)CO)/C=C\CCCCC(F)(F)F` [Compound 12, (S,5Z,8Z,11Z,14Z)-20,20,20-Trifluoro-N-((R)-1-hydroxypropan-2-yl)-13-methylicosa-5,8,11,14-tetraenamide], for which the inhibitory constant (Ki) was found to be 0.7 nM in test [9] and 3.4 nM in [10]. In test [9], the “increase in binding affinity for CB1 compared to lead AMG315” value (shortened to “increase in binding affinity for CB1”) amounted to 10 fold. The “higher affinity for CB2 than the lead compound AMG315” value in test [10] was 52–80 fold. In addition, the “efficacy for the cyclase pathway relative to β-arrestin 2 recruitment in CB1” value in [7] (Emax cAMP vs Emax β-arrestin 2) came to 3 fold. Moreover, the “hCB1 receptor cAMP Emax” value in test [7] (normalized to maximum CP-55,940 = 100) amounted to 67.5%. Further, the Emax was determined as 67% in test [7], 22% in test [8], 29% in test [1] and 28% in test [2]. Also, the EC50 in test [1] worked out at 22 nM; in test [2], 5.6 nM. Further, the “immobility time in the ring test vs vehicle” value is “did not differ reliably from vehicle overall” in [3] (0.3 mg/kg), “increased immobility time” in test [3] (1 mg/kg) and “increased immobility time” in test [3] (3 mg/kg). Besides, the “body temperature vs vehicle” value in test [4] (0.3 mg/kg) is on record as “did not alter body temperature at any postinjection time point”; in test [4] (1 mg/kg) it was “reducing body temperature”; in test [4] (3 mg/kg) it was “reducing body temperature”. Also, the “earliest time of reduced body temperature postinjection” value in test [4] (1 or 3 mg/kg) is recorded as 10 min. Further, the “tail-flick latency in the tail-immersion test vs vehicle” value is “increased tail-flick latency” in test [5] (1 mg/kg, i.p.); “increased tail-flick latency” in test [5] (3 mg/kg, i.p.); “increased tail-flick latency” in test [5] (low dose, 0.1 mg/kg i.p.).
As to `C[C@H](/C=C\C/C=C\C/C=C\CCCC(=O)N[C@H](C)CO)/C=C\CCCCCBr` [Compound 15, (S,5Z,8Z,11Z,14Z)-20-Bromo-N-((R)-1-hydroxypropan-2-yl)-13-methylicosa-5,8,11,14-tetraenamide], in test [9], the Ki was 1.1 nM and the “increase in binding affinity for CB1” value is 2–7 fold. In addition, the Ki in test [10] was determined as 5.3 nM.
Regarding `C[C@H](/C=C\C/C=C\C/C=C\CCCC(=O)N[C@H](C)CO)/C=C\CCCCCC#N` [Compound 16a, (S,5Z,8Z,11Z,14Z)-20-Cyano-N-((R)-1-hydroxypropan-2-yl)-13-methylicosa-5,8,11,14-tetraenamide], in test [9], the Ki stood at 1.4 nM and the “increase in binding affinity for CB1” value was 2–7 fold. Besides, in test [10], the Ki stood at 2.2 nM and the “higher affinity for CB2 than the lead compound AMG315” value is 52–80 fold.
On to `C[C@H](/C=C\C/C=C\C/C=C\CCCC(=O)N[C@H](C)CO)/C=C\CCCCCO[N+](=O)[O-]` [Compound 16b, (S,6Z,9Z,12Z,15Z)-20-(((R)-1-Hydroxypropan-2-yl)amino)-8-methyl-20-oxoicosa-6,9,12,15-tetraen-1-yl Nitrate], for which, in [9], the affinity corresponds to a Ki of 1.7 nM and the “increase in binding affinity for CB1” value was 2–7 fold. This compound had a Ki in [10] of 10.9 nM.
As to `C[C@H](/C=C\C/C=C\C/C=C\CCCC(=O)N[C@H](C)CO)/C=C\CCCCCO` [Compound 18, (S,5Z,8Z,11Z,14Z)-20-Hydroxy-N-((R)-1-hydroxypropan-2-yl)-13-methylicosa-5,8,11,14-tetraenamide], in [9] (read-out: rCB1 receptor Ki, rat brain membranes, [3H]CP-55,940, (± 95% CI)), the Ki is 29 nM.
Consider `C[C@H](/C=C\C/C=C\C/C=C\CCCC(=O)N[C@H](C)CO)/C=C\CCCCCF` [Compound 21, (S,5Z,8Z,11Z,14Z)-20-Fluoro-N-((R)-1-hydroxypropan-2-yl)-13-methylicosa-5,8,11,14-tetraenamide], for which, in test [9], the affinity, expressed as Ki, was 4.2 nM and the “increase in binding affinity for CB1” value is recorded as 2–7 fold. In test [10], this compound came in with a Ki of 22.2 nM.
